The values below come from US6609014B1, “Use of PDT to inhibit intimal hyperplasia” (QLT Inc., priority 1999, dated 2003).

Common to all, as to assay type: in vivo, Domestic swine
The test system of data set [1] is intimal hyperplasia in the vein of AV fistulae between the carotid artery and the jugular vein. Description: Three month efficacy study: PDT of bilateral AV fistulae, morphometric analysis. Details: key to PDT-treated fistula thrombosed (T): T = thrombosed. On the procedure: A porous balloon catheter was introduced into the lumen of veins to deliver either 2 mL of BPD-MA (diluted in 5% dextrose in water) or 5% dextrose in water (control), at a delivery pressure of 2 mm Hg. Two minutes later, the photosensitizer (or dextrose) was rinsed out with heparinized saline before light exposure.
The adventitia of the vein was exposed to the operating room (OR) lamp light for 40 minutes (a combination of incandescent bulbs and fluorescence tubes—approximately 1 J/cm^2).
(§1) Measurements and observations were made by morphometric analysis of cross-sections of fistulae stained with Verhoeff's elastic to assess the integrity of the vessel wall and also clearly demarcate the internal elastic lamina (IEL) for the measurement of IH. Areas within the lumen and those circumscribed by the internal elastic lamina (IEL) and the external elastic lamina (EEL) were measured directly using the Optimas (Optimas Corporation, Bothell, Wash., USA) program. The areas of the intima and the media were calculated by subtraction: intimal area equals the […], and medial area equals EEL area minus IEL area.
A three month study was conducted with bilateral end-to side AV fistulae between the carotid artery and the jugular vein created in 11 pigs. One fistula was treated with 0.15 mg/2 mL BPD-MA and 1 J/cm^2 OR lamp light delivered over 40 min; the control fistula received 5% Dextrose and light. Animals were sacrificed 3 months after PDT. The fistulae were surgically excised and processed for histology and morphometric analysis as described previously. Only 27% of the PDT treated and 45% of the control fistulae were patent by 3 months. Occlusion appeared to be due to both early thrombosis, possibly related to the surgical procedure or late thrombosis due to extensive IH and lumen narrowing.
There were three animals for which patent PDT-treated and control fistulae could be recovered. The percent of the lumen compromised by IH (% LCIH=[…]) was calculated for the first two complete blocks from the tip of the anastamosis for these samples.

Data set [2] concerns PCNA positive (proliferating) cells in the vein. Description: PCNA immunocytochemistry of AV fistula veins 48 hours after PDT. On the procedure: In Example 4, immunohistochemistry was use to study the early phase of cell proliferation. Immunocytochemistry for the proliferating cell nuclear antigen (PCNA, mouse antibody clone PC10, Sigma) was used to assess cell proliferation in the vein. PCNA positive cells were counted using the Optimas image analysis program.
For the purposes of determining the early cellular effects of PDT on the vein, bilateral AV fistulae were created in six pigs and treated sides were given 0.15 mg BPD-MA (0.15 mg/2 mL) and 40 minutes OR light. After 48 hours these pigs were sacrificed and the fistulae were recovered and processed for histological evaluation. This is not enough time for IH to have developed, but the cellular activation which leads to IH may be detectable. […] Immunocytochemistry for the proliferating cell nuclear antigen (PCNA) was used to assess cell proliferation in the tissue (Table 3).

The subject of data set [3] is elastic lamina of the vein. Description: Elastin (Verhoeff's elastic) staining of AV fistula veins after PDT. Conditions: 48 h and 1 month samples. On the procedure: as §1
Where [4] appears, read: 0.15 mg VERTEPORFIN/2 mL, 1 J/cm^2 OR lamp light over 40 min, three months, individual pigs.
[5] abbreviates: 0.15 mg VERTEPORFIN, three months, group mean.
Where [6] appears, read: 0.15 mg VERTEPORFIN, three months, group mean (n=3).
Where [7] appears, read: 0.15 mg VERTEPORFIN, three months, individual pigs.
[8] abbreviates: 0.15 mg VERTEPORFIN, three months, individual pigs (FIG. 9: percent medial hyperplasia).
Where [9] appears, read: 0.15 mg/2 mL BPD-MA, three months.
Setting [10] is: 0.15 mg BPD-MA (0.15 mg/2 mL), 40 minutes OR light, six pigs.

Values joined by “and” are separate entries in the source; they are usually repeats but may differ in a detail not shown here. Equal entries are not always repeated.

In the case of “benzoporphyrin derivative monoacid ring A [BPD-MA]”, in data set [1] (setting [4]), the “Percent Lumen Compromised by Intimal Hyperplasia, PDT, Block #2” value is 2% and 32.3% and 41.7% and 13.7% and 46.4%; the “Percent Lumen Compromised by Intimal Hyperplasia, PDT, PDT (Block#1)” value was 3.1% and 30.2% and 17.3%. For the same substance, in data set [1] (setting [5]), the “Medial Hyperplasia, PDT, Block#1, Mean” value is given as 21.3; the “Medial Hyperplasia, PDT, Block#2, Mean” value is listed as 14.9; the “Percent Lumen Compromised by Intimal Hyperplasia, PDT, Block #1, Mean” value was 16.9%; the “Percent Lumen Compromised by Intimal Hyperplasia, PDT, Block #2, Mean” value turned out to be 26.9%. Further, in data set [1] (setting [6]), the “Percent Lumen Compromised by Intimal Hyperplasia, Control-PDT, Block #1, Mean” value came out at 16.7% and the “Percent Lumen Compromised by Intimal Hyperplasia, Control-PDT, Block #2, Mean” value came to 8.5%. In addition, in data set [1] (setting [7]), the “PDT-treated fistula thrombosed (T)” value is reported as “T”; the “Percent Lumen Compromised by Intimal Hyperplasia, Control-PDT, Block #1” value was −0.4% and 18.8% and 31.8%; the “Percent Lumen Compromised by Intimal Hyperplasia, Control-PDT, Block #2” value is 17.6% and 14.5% and −6.6%. Further, in data set [1] (setting [8]), the “Medial Hyperplasia, PDT, Block#1” value is 8.4 and 38.1 and 17.3; the “Medial Hyperplasia, PDT, Block#2” value is 8.1 and 27.5 and 9.2. In data set [1] (0.15 mg/2 mL BPD-MA, 1 J/cm^2 OR lamp light over 40 min, 11 pigs, control 45%), the “PDT treated fistulae patent by 3 months” value is reported as 27%. Also, in data set [1] (setting [9]), the “Relative reduction of intimal hyperplasia, block 1” value worked out at 46% and the “Relative reduction of intimal hyperplasia, block 2” value is 27%. Besides, the “PDT effect on the media of the veins” value in data set [1] (after 3 months) is on record as “little PDT effect”. The “IH in block of tissue immediately adjacent to the anastamosis” value in data set [1] (three animals with both fistulae patent, three months) is on record as “marked decrease in IH”. Besides, in data set [2] (setting [10]), the “MEAN PERCENT OF PCNA POSITIVE CELLS PER TISSUE AREA, PDT, BLOCK 1” value is on record as 0.33%; the “MEAN PERCENT OF PCNA POSITIVE CELLS PER TISSUE AREA, PDT, BLOCK 2” value is listed as 0.74%; the “MEAN PERCENT OF PCNA POSITIVE CELLS PER TISSUE AREA, PDT, BLOCK 3” value is reported as 0.65%. Further, the “Reduction of number of proliferating cells at the anastomosis of the vein” value in data set [2] (low-dose PDT (0.15 mg BPD-MA)) is 2 fold. In addition, the “Damage to the elastic lamina due to PDT” value in data set [3] was “no sign of damage to the elastic lamina”.
